This note sets out measurements from ChEMBL document CHEMBL1201862, “PubChem BioAssay data set” (2004).

Assay [1] addresses T1, Voltage-gated N-type calcium channel alpha-1B subunit/Amyloid beta A4 precursor protein-binding family A member 1 (Homo sapiens, UniProt Q00975+Q02410). It is filed as protein assay.
The target of assay [2] is T1, Voltage-gated N-type calcium channel alpha-1B subunit/Amyloid beta A4 precursor protein-binding family A member 1. Format: protein assay. This is another data set of the same source.
Another assay addresses T2, Hexokinase-1 (Homo sapiens, UniProt P19367).
T2 sequence (P19367 whole entry): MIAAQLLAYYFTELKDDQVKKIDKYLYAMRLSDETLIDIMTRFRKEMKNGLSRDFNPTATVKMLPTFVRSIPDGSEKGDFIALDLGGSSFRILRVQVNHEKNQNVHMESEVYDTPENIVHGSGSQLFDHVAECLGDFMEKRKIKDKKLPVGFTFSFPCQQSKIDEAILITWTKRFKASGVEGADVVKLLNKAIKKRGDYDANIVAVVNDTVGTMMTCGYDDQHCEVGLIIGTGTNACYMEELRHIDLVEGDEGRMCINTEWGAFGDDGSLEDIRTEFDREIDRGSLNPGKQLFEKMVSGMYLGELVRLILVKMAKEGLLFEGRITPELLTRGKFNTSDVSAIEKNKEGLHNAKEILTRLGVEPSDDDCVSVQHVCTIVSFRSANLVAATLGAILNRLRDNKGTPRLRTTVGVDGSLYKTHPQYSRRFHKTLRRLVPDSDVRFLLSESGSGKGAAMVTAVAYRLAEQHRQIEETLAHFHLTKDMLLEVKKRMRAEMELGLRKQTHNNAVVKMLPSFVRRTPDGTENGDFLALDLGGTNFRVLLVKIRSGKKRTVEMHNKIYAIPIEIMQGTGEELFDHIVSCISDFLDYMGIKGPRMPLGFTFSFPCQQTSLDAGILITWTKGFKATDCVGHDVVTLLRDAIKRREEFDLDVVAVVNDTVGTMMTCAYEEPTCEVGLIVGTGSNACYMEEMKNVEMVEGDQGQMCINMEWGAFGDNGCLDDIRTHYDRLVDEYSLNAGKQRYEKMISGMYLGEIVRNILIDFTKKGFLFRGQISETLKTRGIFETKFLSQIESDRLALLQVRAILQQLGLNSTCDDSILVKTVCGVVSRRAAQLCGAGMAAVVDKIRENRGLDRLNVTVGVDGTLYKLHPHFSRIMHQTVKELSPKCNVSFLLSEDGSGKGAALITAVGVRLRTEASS
The assay can be described thus: HK1 enzyme activation by HKDC1 hits – biochemical, selectivity assay for HKDC1 activator project, dose response (AID 504762). It is filed as functional.

The target of the next assay is T3, Hexokinase HKDC1 (Homo sapiens, UniProt Q2TB90).
T3 sequence (Q2TB90 whole entry): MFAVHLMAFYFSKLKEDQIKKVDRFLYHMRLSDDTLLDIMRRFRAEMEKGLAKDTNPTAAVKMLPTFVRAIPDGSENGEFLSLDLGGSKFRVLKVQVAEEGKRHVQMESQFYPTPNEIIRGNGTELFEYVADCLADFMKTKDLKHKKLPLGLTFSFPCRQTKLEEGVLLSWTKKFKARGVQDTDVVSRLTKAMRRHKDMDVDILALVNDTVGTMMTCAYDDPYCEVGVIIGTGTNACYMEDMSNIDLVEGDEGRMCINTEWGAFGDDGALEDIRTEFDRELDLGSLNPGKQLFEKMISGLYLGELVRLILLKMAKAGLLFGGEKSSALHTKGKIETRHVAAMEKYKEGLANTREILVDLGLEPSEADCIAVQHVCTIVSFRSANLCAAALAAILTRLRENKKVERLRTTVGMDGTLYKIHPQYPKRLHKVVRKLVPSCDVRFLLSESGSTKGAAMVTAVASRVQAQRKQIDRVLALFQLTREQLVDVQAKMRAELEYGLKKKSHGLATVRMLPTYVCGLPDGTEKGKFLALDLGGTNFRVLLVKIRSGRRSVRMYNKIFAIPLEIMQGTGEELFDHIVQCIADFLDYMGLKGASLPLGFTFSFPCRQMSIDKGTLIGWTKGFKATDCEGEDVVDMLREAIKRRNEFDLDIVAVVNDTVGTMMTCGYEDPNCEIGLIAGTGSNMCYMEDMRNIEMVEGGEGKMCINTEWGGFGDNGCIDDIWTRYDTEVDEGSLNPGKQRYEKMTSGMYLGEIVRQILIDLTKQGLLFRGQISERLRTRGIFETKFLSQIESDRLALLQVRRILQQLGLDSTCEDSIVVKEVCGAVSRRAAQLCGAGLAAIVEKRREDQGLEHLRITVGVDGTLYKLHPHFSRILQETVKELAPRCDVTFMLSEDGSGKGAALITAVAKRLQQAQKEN
The assay can be described thus: activation of HKDC1 glucose phosphorylation – biochemical, W721R variant, dose response (AID 504730). Format: functional.

In the next assay the test system is Vero. The assay can be described thus: cells. As to conditions: Chlorocebus sabaeus. Format: functional.
Assay [3] concerns the target T4, Endoribonuclease toxin MazF (Escherichia coli K-12, UniProt P0AE70).
T4 sequence (P0AE70 whole entry): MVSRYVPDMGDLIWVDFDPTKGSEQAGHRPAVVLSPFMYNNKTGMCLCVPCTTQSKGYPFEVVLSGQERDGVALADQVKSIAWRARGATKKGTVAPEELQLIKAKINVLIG
The assay can be described thus: substrate-only fluorescence increase artefacts – biochemical, single-stranded RNase substrate, counter-screen for MazEF activator project, dose response (AID 588502). It is filed as functional. On the technique in general: The purpose of a counterscreen is to sort out artefacts and off-target activity.

In assay [4] the target is T4, Endoribonuclease toxin MazF. The assay can be described thus: activation of MazEF endoribonuclease cleavage – biochemical, fluorescence, single-stranded RNA substrate, uHTS hits, dose response (AID 588481). It is filed as functional.
The next assay addresses Troponin, cardiac muscle (Homo sapiens, UniProt P19429+P45379+P63316). The assay can be described thus: Fluorescence-based biochemical high throughput dose response assay for activators of the calcium sensitivity of cardiac Regulated Thin Filaments (RTF). [Related pubchem assays (depositor defined):AID493008, AID493018, AID504382, AID504383]. Format: protein-complex assay.

Assay [5] addresses T5, Corticotropin-releasing factor receptor 2/Corticotropin-releasing factor-binding protein (Homo sapiens, UniProt P24387+Q13324).
T5 sequence (Q13324 whole entry): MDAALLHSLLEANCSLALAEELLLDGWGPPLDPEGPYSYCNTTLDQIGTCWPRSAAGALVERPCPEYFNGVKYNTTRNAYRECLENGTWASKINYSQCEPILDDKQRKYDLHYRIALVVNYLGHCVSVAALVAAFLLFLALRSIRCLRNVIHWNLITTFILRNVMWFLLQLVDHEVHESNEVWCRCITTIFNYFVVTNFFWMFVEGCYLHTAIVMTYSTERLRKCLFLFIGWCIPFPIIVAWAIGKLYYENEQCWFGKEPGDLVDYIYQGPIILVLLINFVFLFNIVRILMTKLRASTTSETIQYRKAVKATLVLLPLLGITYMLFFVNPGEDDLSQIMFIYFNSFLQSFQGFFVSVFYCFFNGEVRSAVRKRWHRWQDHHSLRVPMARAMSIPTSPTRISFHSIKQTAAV
T5 sequence (P24387 whole entry): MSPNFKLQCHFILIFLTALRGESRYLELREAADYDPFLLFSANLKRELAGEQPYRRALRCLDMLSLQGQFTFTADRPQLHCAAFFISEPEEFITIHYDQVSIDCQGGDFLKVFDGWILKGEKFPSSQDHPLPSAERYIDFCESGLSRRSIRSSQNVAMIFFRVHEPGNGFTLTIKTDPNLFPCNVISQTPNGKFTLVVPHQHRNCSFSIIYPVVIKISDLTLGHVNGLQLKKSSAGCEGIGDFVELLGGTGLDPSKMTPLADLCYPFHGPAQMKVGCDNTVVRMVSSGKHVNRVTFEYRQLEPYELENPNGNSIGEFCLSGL
The assay can be described thus: activators of CRF receptor 2 with binding protein – uHTS hits, confirmation (AID 602473). As to conditions: read-out: EC50_Mean. It is filed as functional.

For a further assay, the target named is T6, Perilipin-1/ABHD5 (Homo sapiens, UniProt O60240+Q8WTS1).
T6 sequence (Q8WTS1 whole entry): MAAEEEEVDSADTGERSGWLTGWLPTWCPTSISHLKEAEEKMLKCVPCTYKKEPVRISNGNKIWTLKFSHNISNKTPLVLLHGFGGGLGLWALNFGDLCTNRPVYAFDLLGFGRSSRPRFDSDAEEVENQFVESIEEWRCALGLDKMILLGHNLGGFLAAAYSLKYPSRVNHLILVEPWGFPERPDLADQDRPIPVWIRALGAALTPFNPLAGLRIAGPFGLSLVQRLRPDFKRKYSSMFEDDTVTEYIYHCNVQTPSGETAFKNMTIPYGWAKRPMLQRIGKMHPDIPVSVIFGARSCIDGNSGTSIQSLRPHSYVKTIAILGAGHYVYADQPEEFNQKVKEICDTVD
T6 sequence (O60240 whole entry): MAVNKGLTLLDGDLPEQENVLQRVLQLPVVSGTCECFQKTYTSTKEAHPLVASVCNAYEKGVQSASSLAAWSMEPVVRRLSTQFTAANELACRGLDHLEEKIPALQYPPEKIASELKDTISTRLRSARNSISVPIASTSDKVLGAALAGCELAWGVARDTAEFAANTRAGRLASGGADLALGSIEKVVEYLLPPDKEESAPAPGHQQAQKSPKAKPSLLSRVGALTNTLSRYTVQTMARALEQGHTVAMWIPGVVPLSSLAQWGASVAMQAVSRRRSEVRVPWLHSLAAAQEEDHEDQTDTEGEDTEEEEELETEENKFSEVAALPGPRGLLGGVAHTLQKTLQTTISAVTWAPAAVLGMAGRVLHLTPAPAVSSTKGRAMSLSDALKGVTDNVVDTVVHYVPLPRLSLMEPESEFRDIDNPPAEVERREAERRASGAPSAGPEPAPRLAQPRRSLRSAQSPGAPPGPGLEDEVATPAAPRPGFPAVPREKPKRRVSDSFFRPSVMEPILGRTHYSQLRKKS
The assay can be described thus: Luminescence-based biochemical high throughput dose response assay for inhibitors of the interaction of the lipase co-activator protein, abhydrolase domain containing 5 (ABHD5) with perilipin-1 (PLIN1) (2K validation set). [Related pubchem assays (depositor defined):AID493027, AID493057].

Assay [6] deals with T7, 1-acylglycerol-3-phosphate O-acyltransferase ABHD5/Perilipin-5 (Homo sapiens, UniProt Q00G26+Q8WTS1).
T7 sequence (Q00G26 whole entry): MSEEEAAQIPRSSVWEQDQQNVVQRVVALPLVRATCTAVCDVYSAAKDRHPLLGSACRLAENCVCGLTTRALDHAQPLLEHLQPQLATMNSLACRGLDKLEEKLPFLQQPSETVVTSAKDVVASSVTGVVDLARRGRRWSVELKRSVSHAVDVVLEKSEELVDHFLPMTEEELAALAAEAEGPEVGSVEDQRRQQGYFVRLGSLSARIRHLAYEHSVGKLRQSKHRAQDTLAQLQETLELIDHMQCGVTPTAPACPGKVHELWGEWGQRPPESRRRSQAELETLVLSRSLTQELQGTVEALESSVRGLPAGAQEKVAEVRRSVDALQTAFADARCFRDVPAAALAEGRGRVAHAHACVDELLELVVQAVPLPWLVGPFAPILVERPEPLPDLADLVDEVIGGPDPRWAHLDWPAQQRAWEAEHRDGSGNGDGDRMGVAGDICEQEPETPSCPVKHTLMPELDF
T7 sequence (Q8WTS1 whole entry): T6 sequence (Q8WTS1 whole entry)
The assay can be described thus: Luminescence-based biochemical high throughput dose response assay for inhibitors of the interaction of the lipase co-activator protein, abhydrolase domain containing 5 (ABHD5) with perilipin-5 (MLDP; PLIN5) (2K validation set). [Related pubchem assays (depositor defined):AID493035, AID493241].

Activity calls are given as the source filed them.

T1 sequence (Q00975 whole entry): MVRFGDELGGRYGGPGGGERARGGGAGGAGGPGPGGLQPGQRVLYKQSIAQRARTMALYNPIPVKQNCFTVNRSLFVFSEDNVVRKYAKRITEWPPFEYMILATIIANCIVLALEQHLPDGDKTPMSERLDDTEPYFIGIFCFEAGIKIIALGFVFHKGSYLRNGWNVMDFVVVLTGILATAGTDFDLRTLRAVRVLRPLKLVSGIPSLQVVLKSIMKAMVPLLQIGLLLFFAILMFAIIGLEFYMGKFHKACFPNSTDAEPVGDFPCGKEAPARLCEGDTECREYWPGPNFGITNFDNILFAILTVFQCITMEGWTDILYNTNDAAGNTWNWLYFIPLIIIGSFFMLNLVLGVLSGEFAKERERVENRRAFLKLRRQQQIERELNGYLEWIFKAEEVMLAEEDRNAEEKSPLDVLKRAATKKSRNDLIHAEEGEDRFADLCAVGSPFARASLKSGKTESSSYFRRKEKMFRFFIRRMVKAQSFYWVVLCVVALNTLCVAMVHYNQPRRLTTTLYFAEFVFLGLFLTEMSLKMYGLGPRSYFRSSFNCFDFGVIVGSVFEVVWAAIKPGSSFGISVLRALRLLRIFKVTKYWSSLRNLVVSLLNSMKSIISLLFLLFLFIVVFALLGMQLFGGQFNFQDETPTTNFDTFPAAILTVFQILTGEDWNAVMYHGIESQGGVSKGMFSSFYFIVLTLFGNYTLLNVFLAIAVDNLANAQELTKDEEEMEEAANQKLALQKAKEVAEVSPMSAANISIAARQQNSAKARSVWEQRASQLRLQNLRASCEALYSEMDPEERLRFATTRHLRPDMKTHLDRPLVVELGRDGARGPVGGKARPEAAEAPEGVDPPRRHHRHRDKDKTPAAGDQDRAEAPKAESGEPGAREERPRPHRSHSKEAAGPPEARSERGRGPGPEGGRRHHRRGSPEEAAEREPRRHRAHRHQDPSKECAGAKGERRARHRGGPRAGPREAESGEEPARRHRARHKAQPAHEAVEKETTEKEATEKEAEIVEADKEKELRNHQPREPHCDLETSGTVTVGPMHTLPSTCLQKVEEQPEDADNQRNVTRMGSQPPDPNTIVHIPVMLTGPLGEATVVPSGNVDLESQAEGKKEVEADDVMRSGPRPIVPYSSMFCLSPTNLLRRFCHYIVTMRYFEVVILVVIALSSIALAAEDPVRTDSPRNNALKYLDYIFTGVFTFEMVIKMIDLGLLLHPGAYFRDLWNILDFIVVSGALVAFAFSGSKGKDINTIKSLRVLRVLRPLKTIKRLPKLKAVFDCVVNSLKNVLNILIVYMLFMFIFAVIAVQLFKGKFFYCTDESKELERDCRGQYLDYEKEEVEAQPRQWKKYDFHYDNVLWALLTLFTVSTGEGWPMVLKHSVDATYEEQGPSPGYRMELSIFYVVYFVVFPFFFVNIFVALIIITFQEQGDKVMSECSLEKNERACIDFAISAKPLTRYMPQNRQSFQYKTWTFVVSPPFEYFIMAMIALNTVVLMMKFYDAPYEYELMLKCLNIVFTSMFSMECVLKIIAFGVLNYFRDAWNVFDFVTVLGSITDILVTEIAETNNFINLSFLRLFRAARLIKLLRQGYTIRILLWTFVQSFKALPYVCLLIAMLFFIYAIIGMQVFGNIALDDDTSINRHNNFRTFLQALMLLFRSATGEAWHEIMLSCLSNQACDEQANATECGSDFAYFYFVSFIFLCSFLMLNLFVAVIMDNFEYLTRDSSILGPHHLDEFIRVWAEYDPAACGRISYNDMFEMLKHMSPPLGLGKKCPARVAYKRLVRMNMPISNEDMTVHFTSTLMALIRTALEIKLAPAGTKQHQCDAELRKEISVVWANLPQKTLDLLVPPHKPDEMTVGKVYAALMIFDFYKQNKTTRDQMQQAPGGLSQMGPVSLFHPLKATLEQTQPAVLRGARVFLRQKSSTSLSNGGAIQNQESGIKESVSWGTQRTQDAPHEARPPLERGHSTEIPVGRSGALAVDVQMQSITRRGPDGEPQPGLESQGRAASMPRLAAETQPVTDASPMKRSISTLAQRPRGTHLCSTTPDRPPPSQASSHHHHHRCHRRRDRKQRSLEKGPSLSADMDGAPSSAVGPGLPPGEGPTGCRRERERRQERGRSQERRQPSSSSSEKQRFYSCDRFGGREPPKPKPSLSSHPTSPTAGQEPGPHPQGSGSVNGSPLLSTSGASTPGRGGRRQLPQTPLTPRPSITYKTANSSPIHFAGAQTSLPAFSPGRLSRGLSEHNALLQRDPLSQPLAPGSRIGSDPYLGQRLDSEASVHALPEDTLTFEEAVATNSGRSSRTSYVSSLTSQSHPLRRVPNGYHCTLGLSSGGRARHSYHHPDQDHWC
T1 sequence (Q02410 whole entry): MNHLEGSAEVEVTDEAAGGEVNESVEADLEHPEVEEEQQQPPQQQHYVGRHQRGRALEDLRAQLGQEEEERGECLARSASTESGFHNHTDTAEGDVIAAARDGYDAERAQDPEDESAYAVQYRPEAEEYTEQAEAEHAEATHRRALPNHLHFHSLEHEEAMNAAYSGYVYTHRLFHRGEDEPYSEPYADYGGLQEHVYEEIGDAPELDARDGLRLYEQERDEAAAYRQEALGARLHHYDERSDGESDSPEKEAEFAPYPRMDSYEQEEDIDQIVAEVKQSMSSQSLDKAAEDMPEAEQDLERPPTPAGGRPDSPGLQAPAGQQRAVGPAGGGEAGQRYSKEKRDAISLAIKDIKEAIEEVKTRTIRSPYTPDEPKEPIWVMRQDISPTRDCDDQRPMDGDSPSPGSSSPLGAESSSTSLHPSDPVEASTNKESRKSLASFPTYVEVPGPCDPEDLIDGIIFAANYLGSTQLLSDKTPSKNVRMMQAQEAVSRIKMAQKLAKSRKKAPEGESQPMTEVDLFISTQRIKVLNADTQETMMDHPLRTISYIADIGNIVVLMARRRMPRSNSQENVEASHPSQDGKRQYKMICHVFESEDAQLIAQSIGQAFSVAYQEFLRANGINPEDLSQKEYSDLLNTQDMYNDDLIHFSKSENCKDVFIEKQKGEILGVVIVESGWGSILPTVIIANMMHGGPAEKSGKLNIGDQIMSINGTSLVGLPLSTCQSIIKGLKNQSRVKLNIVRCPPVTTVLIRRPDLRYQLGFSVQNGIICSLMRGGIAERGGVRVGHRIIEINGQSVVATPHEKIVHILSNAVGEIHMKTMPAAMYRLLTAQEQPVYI

The IC50 is the midpoint of a concentration-inhibition curve. As to `O=C(CCN1C(=O)/C(=C/c2ccccc2Cl)SC1=S)NC1CCS(=O)(=O)C1` (centres undefined), the values for the IC50 in assay [1] and in [2] were > 50 µM (inactive) and 5.22 µM (active), respectively.
Regarding `CCOC(=O)c1c(C)[nH]c(C2=NN=C(Nc3ccccc3)SC2)c1C`, the results for the EC50 at Hexokinase-1 and at Hexokinase HKDC1 were 18.2 µM (active) and 24.3 µM (inactive), respectively.
What is called CC50 is the concentration at which the toxic effect on the cells reaches its halfway point. With `Cn1c(SSc2ccc(-c3cccnc3)n2C)ccc1-c1cccnc1`, the CC50 with Vero was 16.8 µM (active). For the same molecule, the EC50 is 14.2 µM (active) on Hexokinase-1 and 14.8 µM (active) at Hexokinase HKDC1.
As to `COc1ccc(OC)c(/C=C2\N=C(c3ccccc3)OC2=O)c1`, the EC50 in assay [3] is 39.1 µM (inactive); in [4] it was > 99 µM (inactive); on Troponin, cardiac muscle it was 2.58 µM (active); in assay [5], 2.29 µM (active).
`COc1ccc2[nH]c(-c3ccccn3)nc2c1`: at Troponin, cardiac muscle, the EC50 is > 71.5 µM (inactive).
For the molecule `COc1ccc(N2C(=O)NC(=O)/C(=C\c3c[nH]c4ccccc34)C2=O)cc1`, the IC50 is > 50 µM (inactive) in assay [1] and 23.7 µM (active) in [2].
With `COc1ccc(/C=C2\CC/C(=C\c3ccc(OC)c(OC)c3)C2=O)cc1OC`, the values for the IC50 (on Perilipin-1/ABHD5; in [6]) were 5.6 µM (active) and 5.24 µM (active), respectively.
With `COc1cc(N2CCCC2)c(OC)cc1/C=C1/NC(=S)NC1=O`, the EC50 on Troponin, cardiac muscle is 1.14 µM (active).
With `CSCCC(NC(=O)OC(C)(C)C)C(=O)Oc1ccc2c(=O)c(-c3ccc4c(c3)OCCO4)coc2c1` (centres undefined), the IC50 is 2.99 µM (active) at Perilipin-1/ABHD5 and 3.94 µM (active) in assay [6].
